Columns and labels:
HIV-1 MA = target: T1, HIV-1 MA (Human immunodeficiency virus type 1 group M subtype B, UniProt P03348); experiment: Surface plasmon resonance direct binding to immobilized HIV-1 MA; settings: for direct interaction with sensor chip-immobilized HIV-1 MA: CM7 sensor chip, 10 μM (FIG. 14)
T1 construct: His6 (N, cleaved yes); SUMO (N, cleaved yes); made in house; host or cells: Escherichia coli BL21 (DE3) Codon+-RIL
Description: An assay was devised to monitor the interactions of small-molecule compounds to HIV-1 MA using SPR. In this assay, HIV-1LA1 MA was immobilized to the flow cells of a CM5 sensor chip to high density (˜1.3 kRU) or a CM7 sensor chip to high density (19 kRU) using standard amine coupling. A reference surface was similarly created by immobilizing the SUMO protein or a nonspecific antibody ARC4033 (antimouse/rat interferon-γ: BioSource). In small-molecule assays, the buffering system used is important due to the low responses obtained in binding assays. […] A stock solution of the MTI compounds was prepared by dissolving in 100% dimethyl sulfoxide (DMSO) to a final concentration of 10 mM.
To prepare the sample for analysis, 30 μL of the stock solution of the compound of the invention was added to sample preparation buffer (PBS, pH 7.2) to a final volume of 1 mL and mixed thoroughly. Preparation of analyte in this manner ensured that the concentration of DMSO was matched with that of running buffer with 3% DMSO. Lower concentrations of each compound were then prepared by two-fold serial dilutions into running buffer (PBS, 3% DMSO, pH 7.2). These compound dilutions were then injected over the control and MA surfaces at a flow rate of 30 μL min^−, for a 4-min association phase, followed by a 5-min dissociation phase.
In one aspect, owing to the relatively fast dissociation rates of these compounds, regeneration of these surfaces was accomplished by extensive washing of the system followed by a 5 min wait phase, a second wash, and a final 15 min wait phase. To secure complete regeneration, a buffer injection (5 min^on/5 min^off) was performed before each subsequent injection of compound.
Response to a small-molecule compound (NBD-556) specific for HIV-1 gp120 was also monitored to ensure specificity.
Data analysis was performed using BIAEvaluation 4.0 software (GE Healthcare). The responses of a buffer injection and responses from the ARC4033-immobilized reference cell were subtracted to account for nonspecific binding. The average maximum response was generated from a minimum of 3 data sets and was used to define the standard deviation for each compound binding to the HIV-1 MA protein.
The MTI compounds are predicted to interact with HIV-1 MA and thereby disrupt its functioning during the HIV-1 replication cycle. However, it is possible that a compound might exert its action via another mechanism not involving MA. Therefore, studies were performed to determine that the MTI compounds are directed against HIV-1 MA. The direct interaction of compounds CMPD-18, CMPD-17, CMPD-7, and CMPD-14 with HIV-1 MA was assayed using surface plasmon resonance interaction analyses. Wild-type HIV-1 MA protein was overproduced in E. coli using the pETHSUL expression system and purified using successive IMAC strategies, followed by an ion exchange chromatographic step as outlined in Materials and Methods. FIG. 6 illustrates the purification profile of HIV-1 MA. The purified MA was then immobilized onto the surface of a high-capacity CM7 sensor chip. Similarly, the monoclonal antibody ARC4033 (antimouse/rat interferon-γ; BioSource, Invitrogen, Carlsbad, Calif.) was immobilized on a CM7 sensor chip and was used to correct for background binding and instrument and buffer artifacts.

HIV-1 89BZ167 Subtype B = experiment: Anti-HIV efficacy in human PBMCs; type: cell-based; settings: for IC50 / IC90: Human immunodeficiency virus 1, PBMC, PBMCs
Description: (§1) HIV human peripheral blood mononuclear cell (PBMC) assays were performed as described previously (Lanier et al., 2010, Antimicrob Agents Chemother 54:2901-2909 and Ptak et al., 2008, Antimicrob Agents Chemother 52:1302-1317). Briefly, fresh PBMCs, seronegative for HIV and hepatitis B virus (HBV), were isolated from blood samples of the screened donors (Biological Specialty Corporation, Colmar, Pa.) by using lymphocyte separation medium (LSM; density, 1.078±0.002 g/ml; Cellgro; Mediatech, Inc.) by following the manufacturer's instructions. Cells were stimulated by incubation in 4 μg/mL phytohemagglutinin (PHA; Sigma) for 48 to 72 h. Mitogenic stimulation was maintained by the addition of 20 U/mL recombinant human interleukin-2 (rhIL-2; R&D Systems, Inc.) to the culture medium. PHA-stimulated PBMCs from at least two donors were pooled, diluted in fresh medium, and added to 96-well plates at 5×10^4 cells/well. Cells were infected (final multiplicity of infection [MOI] of ≅0.1) in the presence of nine different concentrations of test compounds (triplicate wells/concentration) and incubated for 7 days. To determine the level of virus inhibition, cell-free supernatant samples were collected for analysis of reverse transcriptase activity (Buckheit et al., 1991, AIDS Res Hum Retroviruses 7:295-302). Following removal of supernatant samples, compound cytotoxicity was measured by the addition of 3-(4,5-dimethylthiazol-2-yl)-5-(3-carboxymethoxy-phenyl)-2-(4-sulfophenyl)-2H-tetrazolium (MTS; CellTiter 96 reagent; Promega) by following the manufacturer's instructions.

HIV-1 92BR025 Subtype C = experiment: Anti-HIV efficacy in human PBMCs; type: cell-based; settings: for IC50 / IC90: Human immunodeficiency virus 1, PBMC, PBMCs
Description: as §1

HIV-1 92UG024 Subtype D = experiment: Anti-HIV efficacy in human PBMCs; type: cell-based; settings: for IC50 / IC90: Human immunodeficiency virus 1, PBMC, PBMCs
Description: as §1

HIV-1 92UG031 Subtype A = experiment: Anti-HIV efficacy in human PBMCs; type: cell-based; settings: for IC50 / IC90: Human immunodeficiency virus 1, PBMC, PBMCs
Description: as §1

HIV-1 93BR020 Subtype F = experiment: Anti-HIV efficacy in human PBMCs; type: cell-based; settings: for IC50 / IC90: Human immunodeficiency virus 1, PBMC, PBMCs
Description: as §1

HIV-1 BCF02 Group O = experiment: Anti-HIV efficacy in human PBMCs; type: cell-based; settings: for IC50 / IC90: Human immunodeficiency virus 1, PBMC; for IC50 / IC90 / Antiviral index (TC50/IC50): BCF02 Group O
Description: as §1

HIV-1 CMU08 Subtype E = experiment: Anti-HIV efficacy in human PBMCs; type: cell-based; settings: for IC50 / IC90: Human immunodeficiency virus 1, PBMC, PBMCs
Description: as §1

HIV-1 G3 Subtype G = experiment: Anti-HIV efficacy in human PBMCs; type: cell-based; settings: for Antiviral index (TC50/IC50): G3 Subtype G; for IC50 / IC90: Human immunodeficiency virus 1, PBMC
Description: as §1

Dengue serotypes 1-4 = experiment: Antiviral spectrum: cytopathic effect assay; type: cell-based
[1] = tested on: respiratory syncytial virus; experiment: Antiviral spectrum: cytopathic effect assay; type: cell-based
[2] = tested on: luciferase-reporter HIV-1 NL4-3 pseudotyped with HxBc2 envelope produced in 293T cells; experiment: microbe, parasite or virus in culture

Structure (SMILES)	direct interaction with sensor chip-immobilized HIV-1 MA (HIV-1 MA)	Antiviral index (TC50/IC50) (HIV-1 89BZ167 Subtype B)	IC50 (HIV-1 89BZ167 Subtype B)	IC90 (HIV-1 89BZ167 Subtype B)	Antiviral index (TC50/IC50) (HIV-1 92BR025 Subtype C)	IC50 (HIV-1 92BR025 Subtype C)	IC90 (HIV-1 92BR025 Subtype C)	Antiviral index (TC50/IC50) (HIV-1 92UG024 Subtype D)	IC50 (HIV-1 92UG024 Subtype D)	IC90 (HIV-1 92UG024 Subtype D)	Antiviral index (TC50/IC50) (HIV-1 92UG031 Subtype A)	IC50 (HIV-1 92UG031 Subtype A)	IC90 (HIV-1 92UG031 Subtype A)	Antiviral index (TC50/IC50) (HIV-1 93BR020 Subtype F)	IC50 (HIV-1 93BR020 Subtype F)	IC90 (HIV-1 93BR020 Subtype F)	IC50 (HIV-1 BCF02 Group O; PBMCs)	IC90 (HIV-1 BCF02 Group O; PBMCs)	Antiviral index (TC50/IC50) (HIV-1 CMU08 Subtype E)	IC50 (HIV-1 CMU08 Subtype E)	other results
Cc1ccc(NC(=O)CN2CCN(Cc3nc(-c4ccc(F)cc4)no3)CC2)cc1 [CMPD-7, 2-(4-((3-(4-fluorophenyl)-1,2,4-oxadiazol-5-yl)methyl)piperazin-1-yl)-N-(p-tolyl)acetamide]	directly interacted	>6.97	14.4 µM	> 100 µM	>9.51	10.5 µM	> 100 µM	>11.3	8.88 µM	35.2 µM	>6.72	14.9 µM	> 100 µM	>6.42	15.6 µM	> 100 µM	> 100 µM	> 100 µM	>10.4	9.64 µM	activity against the group O isolate HIV-1BCF02, in words (HIV-1 BCF02 Group O; over the concentrations tested, PBMCs): no activity; IC90 (HIV-1 CMU08 Subtype E): 99.7 µM; Antiviral index (TC50/IC50) (HIV-1 G3 Subtype G): >9.36; IC50 (HIV-1 G3 Subtype G): 10.7 µM; IC90 (HIV-1 G3 Subtype G): 30.2 µM; inhibitory effects on replication (Dengue serotypes 1-4): no inhibitory effects; inhibitory effects on replication [1]: no inhibitory effects; IC50 [2]: 28 µM
O=C(CNC(=O)COc1ccccc1)NCc1ccc(C(=O)N2CCCCC2)cc1 [CMPD-14, N-(2-oxo-2-((4-(piperidine-1-carbonyl)benzyl)amino)ethyl)-2-phenoxyacetamide]	directly interacted	>4.66	21.4 µM	40.7 µM	>4.24	23.6 µM	96.6 µM	>5.41	18.5 µM	29.5 µM	>5.40	18.5 µM	42.2 µM	>4.93	20.3 µM	32.6 µM	21.9 µM	45 µM	>6.27	16 µM	Antiviral index (TC50/IC50) (HIV-1 BCF02 Group O): >4.57; IC90 (HIV-1 CMU08 Subtype E): 59.5 µM; Antiviral index (TC50/IC50) (HIV-1 G3 Subtype G): >4.88; IC50 (HIV-1 G3 Subtype G): 20.5 µM; IC90 (HIV-1 G3 Subtype G): 29.2 µM; inhibitory effects on replication (Dengue serotypes 1-4): no inhibitory effects; inhibitory effects on replication [1]: no inhibitory effects; IC50 [2]: 95 µM
CCOc1ccc(NC(=O)Cc2cn3ccsc3n2)cc1S(=O)(=O)N1CCCCC1 [CMPD-18, N-(4-ethoxy-3-(piperidin-1-ylsulfonyl)phenyl)-2-(imidazo[2,1-b]thiazol-6-yl)acetamide]	directly interacted	>2.94	21.3 µM	71.8 µM	>2.79	22.4 µM	75 µM	>6.02	10.4 µM	25.9 µM	>3.98	15.8 µM	64.7 µM	>3.39	18.5 µM	54.1 µM	27.2 µM	75.6 µM	>5.00	15.9 µM	interaction with HIV-1 MA versus SUMO (HIV-1 MA; 25.1 μM (FIG. 11)): specific interaction; Antiviral index (TC50/IC50) (HIV-1 BCF02 Group O): >2.30; IC90 (HIV-1 CMU08 Subtype E): 95 µM; Antiviral index (TC50/IC50) (HIV-1 G3 Subtype G): >10.9; IC50 (HIV-1 G3 Subtype G): 5.73 µM; IC90 (HIV-1 G3 Subtype G): 21 µM; inhibitory effects on replication (Dengue serotypes 1-4): no inhibitory effects; inhibitory effects on replication [1]: no inhibitory effects; IC50 [2]: > 100 µM

Reference: patent US20130109698A1, “Small Molecule Inhibitors of Functions of the HIV-1 Matrix Protein” (priority 2010, published 2013)
